Assay results published in patent US9434745B2, “7-oxo-thiazolopyridine carbonic acid derivatives and their use in the treatment, amelioration or prevention of a viral disease” (Savira Pharmaceuticals GmbH, priority 2012, dated 2016).

Experiments:
[1] = molecular target: T1, influenza A virus (IAV) PA-Nter fragment (amino acids 1-209) (Influenza A virus, UniProt P31343); test: FRET endonuclease activity assay; format: biochemical; conditions: for IC50: from initial reaction velocities (v0) of RNA substrate cleavage; for inhibition at 1 µM / inhibition at 10 µM / inhibition at 5 µM / inhibition at 25 µM / inhibition at 50 µM: read-out: FRET % reduction of v0
T1 construct: PA-Nter fragment (amino acids 1-209); made in house

COc1ccc(CCn2cc(C(=O)O)c(=O)n3nc(C4CC4)cc23)cc1
melting point: 145 to 150 °C

Nc1cc2[nH]cc(C(=O)O)c(=O)n2n1
IC50 [1]: 10 µM

CCOC(=O)c1c[nH]c2nc(Nc3ccc(C)c(Cl)c3)nn2c1=O
melting point: > 340 °C

COc1ccc(CNc2nc3c(=O)c(C(=O)O)cn(Cc4ccccc4-c4cc(C)ccc4C)c3s2)cc1
IC50 [1]: 2.1 µM

CCOC(=O)c1cn(C(c2ccccc2)c2ccccc2)c2sc(NS(=O)(=O)c3ccc(Cl)cc3F)nc2c1=O
inhibition at 1 µM [1]: 5.6%

Nc1nc2c(=O)c(C(=O)O)cn(Cc3ccccc3-c3ccccc3)c2s1
IC50 [1]: 0.94 µM

O=C(O)c1cn(Cc2ccccc2-c2ccccc2)c2sc(NS(=O)(=O)c3cccc(F)c3)nc2c1=O
IC50 [1]: 6.7 µM

COc1ccc(CNc2nc3c(=O)c(C(=O)O)cn(C(c4ccccc4)c4ccccc4)c3s2)cc1
inhibition at 10 µM [1]: 21.5%

COc1ccc(S(=O)(=O)Nc2nc3c(=O)c(C(=O)O)cn(C(c4ccccc4)c4ccccc4)c3s2)cc1
inhibition at 1 µM [1]: 7.8%

O=C(O)c1c[nH]c2ncnn2c1=O
inhibition at 5 µM [1]: 26%

O=C(O)c1cn(Cc2ccccc2)c2cc(C3CC3)nn2c1=O
melting point: 210 to 215 °C

O=C(O)c1c[nH]c2cc(C(F)(F)F)nn2c1=O
melting point: > 340 °C

CCOC(=O)c1c[nH]c2cc(C(=O)NCc3ccccc3)nn2c1=O
melting point: 290 to 292 °C

CCOC(=O)c1cn(CCc2ccc(O)cc2)c2cc(C3CC3)nn2c1=O
melting point: 95 to 100 °C

O=C(O)c1cn(Cc2ccccc2-c2ccccc2)c2sc(NCc3cccc(Cl)c3)nc2c1=O
IC50 [1]: 5.2 µM

COc1ccc(CNc2nc3c(=O)c(C(=O)O)cn(Cc4ccccc4-c4ccccc4)c3s2)cc1
IC50 [1]: 2.9 µM

CS(=O)(=O)n1cc(C(=O)O)c(=O)n2nc(N)cc12
inhibition at 25 µM [1]: 31%

O=C(O)c1cn(Cc2ccccc2-c2ccccc2)c2sc(NS(=O)(=O)Cc3ccccc3)nc2c1=O
IC50 [1]: 7.3 µM

CCOC(=O)c1cn(CCc2cccc(Cl)c2)c2cc(C3CC3)nn2c1=O
melting point: 160 to 165 °C

CCOC(=O)c1ccc(S(=O)(=O)Nc2nc3c(=O)c(C(=O)OCC)cn(Cc4ccccc4-c4ccccc4)c3s2)cc1
inhibition at 1 µM [1]: 8.1%

CCOC(=O)Cc1cn(C)c2cc(C3CC3)nn2c1=O
melting point: 147 to 150 °C

O=C(O)c1cn(CCc2cccc(F)c2)c2cc(C3CC3)nn2c1=O [drawing 226]
IC50 [1]: 62 µM

O=C(O)c1cn(C(c2ccccc2)c2ccccc2)c2sc(O)nc2c1=O
IC50 [1]: 0.78 µM

COc1ccc(S(=O)(=O)Nc2nc3c(=O)c(C(=O)O)cn(Cc4ccccc4-c4ccc(Cl)cc4)c3s2)cc1
IC50 [1]: 7.2 µM

CC(C)c1cc2[nH]cc(C(=O)O)c(=O)n2n1
IC50 [1]: 35 µM

O=C(O)c1c[nH]c2ccnn2c1=O
IC50 [1]: 58 µM

O=C(O)Cc1c[nH]c2cc(C3CC3)nn2c1=O
melting point: > 300 °C

CCOC(=O)c1c[nH]c2nc(NCc3cccc4ccccc34)nn2c1=O
melting point: 273 to 275 °C

O=C(O)c1c[nH]c2nc(NCc3ccccc3)nn2c1=O [drawing 216]
IC50 [1]: 50 µM

CCOC(=O)c1cn(CCc2ccc(O)cc2)c2cc(C3CC3)nn2c1=O [drawing 223]
inhibition at 25 µM [1]: 22%

CCOC(=O)c1cn(C(c2ccccc2)c2ccccc2)c2sc(NS(=O)(=O)c3ccc(OC)cc3)nc2c1=O
inhibition at 1 µM [1]: 25%

O=C(O)c1cn(Cc2ccccc2-c2ccccc2)c2scnc2c1=O
inhibition at 10 µM [1]: 64%

O=C(O)c1cn(Cc2ccccc2-c2ccccc2)c2sc(NS(=O)(=O)c3ccc(Cl)cc3F)nc2c1=O
IC50 [1]: 5.7 µM

O=c1cc[nH]c2nc(NS(=O)(=O)Cc3ccccc3)nn12
IC50 [1]: 34 µM

COCCNc1nc2c(=O)c(C(=O)O)cn(Cc3ccccc3-c3ccccc3)c2s1
IC50 [1]: 9 µM

CC(C)c1cc2n(CCCc3ccccc3)cc(C(=O)O)c(=O)n2n1 [drawing 222]
inhibition at 25 µM [1]: 22%

O=C(O)c1cn(Cc2ccccc2-c2ccccc2)c2sc(O)nc2c1=O
IC50 [1]: 0.16 µM

O=C(O)c1cn(CCc2ccc(O)cc2)c2cc(C3CC3)nn2c1=O [drawing 227]
inhibition at 25 µM [1]: 27%

O=CNc1nc2c(=O)c(C(=O)O)cn(Cc3ccccc3-c3ccccc3)c2s1
IC50 [1]: 4.7 µM

Nc1cc2n(Cc3ccccc3)cc(C(=O)O)c(=O)n2n1
inhibition at 50 µM [1]: 35%

CCOC(=O)c1cn(Cc2ccccc2-c2ccccc2)c2sc(NCc3c(Cl)cccc3Cl)nc2c1=O
IC50 [1]: 6.3 µM

Cc1ccc(C)c(-c2ccccc2Cn2cc(C(=O)O)c(=O)c3nc(O)sc32)c1
IC50 [1]: 0.25 µM

O=C(O)c1cn(Cc2ccccc2-c2ccccc2)c2sc(N3CCOCC3)nc2c1=O
IC50 [1]: 0.78 µM

O=C(O)c1cn(Cc2ccccc2-c2ccccc2)c2sc(NS(=O)(=O)Cc3ccc(Cl)cc3Cl)nc2c1=O
IC50 [1]: 7 µM

Nc1cc2n(Cc3ccccc3-c3ccccc3)cc(C(=O)O)c(=O)n2n1
inhibition at 10 µM [1]: 38%

COc1ccc(CCn2cc(C(=O)O)c(=O)n3nc(C4CC4)cc23)cc1 [drawing 228]
IC50 [1]: 69 µM

O=C(O)c1c[nH]c2cc(C3CCCC3)nn2c1=O
inhibition at 25 µM [1]: 41%

CCOC(=O)c1cn(Cc2ccccc2-c2ccccc2)c2sc(NS(=O)(=O)c3ccc(Cl)cc3)nc2c1=O
inhibition at 1 µM [1]: 6.2%

CC(C)Nc1nc2c(=O)c(C(=O)O)cn(Cc3ccccc3-c3ccccc3)c2s1
IC50 [1]: 14 µM

O=C(O)c1cn(CCc2cccc(C(F)(F)F)c2)c2cc(C3CC3)nn2c1=O [drawing 225]
inhibition at 25 µM [1]: 32%

O=C(O)c1cn(CCc2cccc(Cl)c2)c2cc(C3CC3)nn2c1=O [drawing 224]
inhibition at 25 µM [1]: 30%

CC(C)c1cc2n(CCCc3ccccc3)cc(C(=O)O)c(=O)n2n1 [drawing 215]
inhibition at 5 µM [1]: 23%

O=C(O)c1cn(Cc2ccccc2-c2ccccc2)c2sc(NS(=O)(=O)c3ccccc3)nc2c1=O
IC50 [1]: 6.5 µM

N#Cc1ccc(S(=O)(=O)Nc2nc3c(=O)c(C(=O)O)cn(Cc4ccccc4-c4ccc(Cl)cc4)c3s2)cc1
IC50 [1]: 2.5 µM

O=C(O)c1cn(Cc2ccccc2-c2ccccc2)c2sc(NC3CC3)nc2c1=O
IC50 [1]: 2.5 µM

O=C(O)c1cn(Cc2ccc(Cl)cc2-c2ccccc2)c2sc(O)nc2c1=O
IC50 [1]: 0.87 µM

O=C(O)c1cn(Cc2ccccc2-c2ccccc2)c2ccnn2c1=O
inhibition at 50 µM [1]: 29%

COc1ccc(S(=O)(=O)Nc2nc3c(=O)c(C(=O)O)cn(Cc4ccccc4-c4ccccc4)c3s2)cc1
IC50 [1]: 2.7 µM

Nc1cc2n(S(=O)(=O)c3ccccc3)cc(C(=O)O)c(=O)n2n1
IC50 [1]: 71 µM

O=C(O)c1cn(Cc2ccccc2-c2ccccc2)c2sc(NCc3ccccc3)nc2c1=O
IC50 [1]: 3.2 µM

CC(Nc1nc2c(=O)c(C(=O)O)cn(Cc3ccccc3-c3ccccc3)c2s1)c1ccccc1 (stereo not drawn)
IC50 [1]: 5.8 µM

Nc1cc2n(C(=O)C3(c4ccccc4)CCCC3)cc(C(=O)O)c(=O)n2n1 [drawing 220]
inhibition at 25 µM [1]: 20%

Nc1cc2n(S(=O)(=O)Cc3ccccc3)cc(C(=O)O)c(=O)n2n1
inhibition at 25 µM [1]: 50%

CNc1nc2c(=O)c(C(=O)O)cn(Cc3ccccc3-c3ccccc3)c2s1
IC50 [1]: 2.8 µM

COc1ccc(CNc2nc3c(=O)c(C(=O)O)cn(Cc4ccc(Cl)cc4-c4ccccc4)c3s2)cc1
IC50 [1]: 3.8 µM

CS(=O)(=O)Nc1nc2c(=O)c(C(=O)O)cn(Cc3ccccc3-c3ccccc3)c2s1
IC50 [1]: 8.1 µM

O=C(O)c1cn(Cc2ccccc2-c2ccccc2)c2sc(NCc3ccc(Cl)cc3)nc2c1=O
IC50 [1]: 2.3 µM

O=C(O)c1cn(C(c2ccccc2)c2ccccc2)c2sc(NS(=O)(=O)c3ccc(Cl)cc3F)nc2c1=O
inhibition at 1 µM [1]: 2%

O=C(O)c1cn(CCc2ccccc2)c2cc(C3CCCC3)nn2c1=O [drawing 219]
inhibition at 25 µM [1]: 42%
